Laboratory results: patent US10711004B2 (Genentech, Inc., priority 2018, dated 2020)
Where two headings read alike, the source gives them in different places.

Target: human TRPA1 channel (Homo sapiens (Human), UniProt O75762)
Assay: hTRPA1 CHO Ca2+ FLIPR Tetra assay, block of cinnamaldehyde induced calcium influx
Format: cell-based
Conditions: for IC50: CHO cells expressing TRPA1, Hill coefficient fixed to 1.5; for TRPA1 IC50 compared with 3-azabicyclo[3.1.0]hexene linker and cyclobutylene linker analogues: bicyclo[3.1.0]hexene linker compounds versus same-substituent analogues (compounds 16, 191; 26, 1)
Outline: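 Calcium-dye-loaded TRPA1-expressing CHO cells in HBSS/20 mM HEPES pH 7.4, 0.02% BSA were preincubated with compound for 10 or 90 min at room temperature. Calcium influx evoked by roughly an EC50 concentration of cinnamaldehyde was then read on FLIPR Tetra; IC50 came from curve fits with a fixed Hill coefficient.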

[1] = read-out: hTRPA1 IC50 (10 min), compounds incubated 10 minutes at room temperature before cinnamaldehyde agonist
[2] = read-out: hTRPA1 IC50 (90 min), compounds incubated 90 minutes at room temperature before cinnamaldehyde agonist

Sequence of human TRPA1 channel (O75762 whole entry): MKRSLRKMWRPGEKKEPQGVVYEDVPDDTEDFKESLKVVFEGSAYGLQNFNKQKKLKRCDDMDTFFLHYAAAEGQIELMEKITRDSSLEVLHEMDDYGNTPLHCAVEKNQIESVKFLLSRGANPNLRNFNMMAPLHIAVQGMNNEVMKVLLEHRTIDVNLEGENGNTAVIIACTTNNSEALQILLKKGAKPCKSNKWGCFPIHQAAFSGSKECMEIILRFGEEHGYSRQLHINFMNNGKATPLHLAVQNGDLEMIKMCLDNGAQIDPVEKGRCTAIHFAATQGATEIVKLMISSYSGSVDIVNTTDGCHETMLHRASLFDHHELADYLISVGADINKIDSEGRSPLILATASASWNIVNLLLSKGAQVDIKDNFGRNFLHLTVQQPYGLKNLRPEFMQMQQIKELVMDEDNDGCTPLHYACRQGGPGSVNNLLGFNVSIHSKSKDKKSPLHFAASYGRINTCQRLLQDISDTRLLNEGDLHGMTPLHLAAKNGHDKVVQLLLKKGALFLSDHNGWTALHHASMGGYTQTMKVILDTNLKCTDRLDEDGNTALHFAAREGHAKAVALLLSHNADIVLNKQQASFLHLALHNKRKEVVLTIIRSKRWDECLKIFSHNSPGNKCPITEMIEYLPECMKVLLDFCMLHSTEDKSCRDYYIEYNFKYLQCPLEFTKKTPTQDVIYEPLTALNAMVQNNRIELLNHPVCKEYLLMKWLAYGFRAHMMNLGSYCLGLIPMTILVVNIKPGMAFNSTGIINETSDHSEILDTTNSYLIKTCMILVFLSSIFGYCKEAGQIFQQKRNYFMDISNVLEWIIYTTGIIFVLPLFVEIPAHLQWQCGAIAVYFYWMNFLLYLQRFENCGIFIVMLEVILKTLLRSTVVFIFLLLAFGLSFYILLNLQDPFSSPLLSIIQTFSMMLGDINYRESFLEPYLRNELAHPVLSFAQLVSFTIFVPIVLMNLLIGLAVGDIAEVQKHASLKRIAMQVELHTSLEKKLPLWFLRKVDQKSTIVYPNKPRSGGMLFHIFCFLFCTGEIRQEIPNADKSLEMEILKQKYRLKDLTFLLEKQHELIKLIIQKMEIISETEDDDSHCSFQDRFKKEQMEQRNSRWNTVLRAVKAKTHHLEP

Row | Structure (SMILES) | IC50 [1] [µM] | IC50 [2] [µM] | further results
1 | Cn1cnc2ncn(Cc3nc([C@@H]4[C@H]5Oc6c(Cl)cccc6[C@H]54)no3)c(=O)c21 [Example Compound 187, 1-((3-((1R,1 aS,6bR)-3-chloro-1a,6b-dihydro-1H-cyclopropa[b]benzofuran-1-yl)-1,2,4-oxadiazol-5-yl)methyl)-7-methyl-1,7-dihydro-6H-purin-6-one] | 0.763 |  | 
2 | Cn1cnc2ncn(Cc3nc([C@H]4[C@@H]5CN(c6ccc(OC(F)(F)F)cc6)C[C@@H]54)no3)c(=O)c21 [Example Compound 6, 7-methyl-1-[[3-[(1R,5S,6 r)-3-[4-(trifluoromethoxy)phenyl]-3-azabicyclo[3.1.0]hexan-6-yl]-1,2,4-oxadiazol-5-yl]methyl]purin-6-one] | 0.0424 |  | 
3 | Cc1cncc2ncn(Cc3nc([C@H]4C[C@](O)(c5ccc(Cl)cc5)C4)no3)c(=O)c12 [Example Compound 9, 3-((3-((1s,3s)-3-(4-chlorophenyl)-3-hydroxycyclobutyl)-1,2,4-oxadiazol-5-yl)methyl)-5-methylpyrido[3,4-d]pyrimidin-4(3H)-one] | 0.0309 |  | 
4 | Cn1cnc2ncn(Cc3nc([C@H]4[C@@H]5CN(c6cc(F)cc(Cl)c6)C[C@@H]54)no3)c(=O)c21 | 0.0205 |  | 
5 | O=c1c2cccnc2ncn1Cc1nc([C@H]2C[C@H](c3cccc(Cl)c3)C2)no1 | 0.049 |  | 
6 | Cn1cnc2ncn(Cc3nc([C@H]4[C@@H]5CN(c6cccc(-c7cccnc7)c6)C[C@@H]54)no3)c(=O)c21 [Example Compound 203, 7-methyl-1-((3-((1R,5S,6r)-3-(3-(pyridin-3-yl)phenyl)-3-azabicyclo[3.1.0]hexan-6-yl)-1,2,4-oxadiazol-5-yl)methyl)-1,7-dihydro-6H-purin-6-one] | 0.0463 | 0.078 | 
7 | Cn1cnc2ncn(Cc3nc([C@H]4[C@@H]5CN(c6ccc(C=O)cc6)C[C@@H]54)no3)c(=O)c21 [Example Compound 32, 4-[(1R,5S,6r)-6-[5-[(7-methyl-6-oxo-purin-1-yl)methyl]-1,2,4-oxadiazol-3-yl]-3-azabicyclo[3.1.0]hexan-3-yl]benzaldehyde] | 0.0549 |  | 
8 | Cn1cnc2ncn(Cc3nc([C@@H]4[C@H]5C=C(c6cccc(F)c6)C[C@H]54)no3)c(=O)c21 [Example Compound 115, 1-((3-((1R,5R,6S)-3-(3-fluorophenyl)bicyclo[3.1.0]hex-2-en-6-yl)-1,2,4-oxadiazol-5-yl)methyl)-7-methyl-1,7-dihydro-6H-purin-6-one] | 0.00973 | 0.0023 | TRPA1 IC50 compared with 3-azabicyclo[3.1.0]hexene linker and cyclobutylene linker analogues: improved TRPA1 IC50 values
9 | O=c1c2cccnc2cnn1Cc1nc([C@H]2[C@@H]3CN(c4cc(Cl)ccn4)C[C@@H]32)no1 [Example Compound 167, 6-((3-((1R,5S,6r)-3-(4-chloropyridin-2-yl)-3-azabicyclo[3.1.0]hexan-6-yl)-1,2,4-oxadiazol-5-yl)methyl)pyrido[2,3-d]pyridazin-5(6H)-one] | 0.0511 | 0.046 | 
10 | Cc1cncc2ncn(Cc3nc([C@H]4C[C@](F)(c5ccc(Cl)cc5)C4)no3)c(=O)c12 [Example Compound 37, 3-((3-((1s,3s)-3-(4-chlorophenyl)-3-fluorocyclobutyl)-1,2,4-oxadiazol-5-yl)methyl)-5-methylpyrido[3,4-d]pyrimidin-4(3H)-one] | 0.0228 |  | 
11 | Cn1cnc2ncn(Cc3nc([C@H]4[C@@H]5C=C(c6cccc(Cl)c6)C[C@@H]54)no3)c(=O)c21 [Example Compound 184, 1-((3-((1S,5S,6R)-3-(3-chlorophenyl)bicyclo[3.1.0]hex-2-en-6-yl)-1,2,4-oxadiazol-5-yl)methyl)-7-methyl-1,7-dihydro-6H-purin-6-one] | 0.00883 | 0.0018 | TRPA1 IC50 compared with 3-azabicyclo[3.1.0]hexene linker and cyclobutylene linker analogues: improved TRPA1 IC50 values
12 | Cn1cnc2ncn(Cc3nc([C@H]4C[C@H](Oc5cccc(Cl)c5)C4)no3)c(=O)c21 [Example Compound 217, 1-((3-((1r,3r)-3-(3-chlorophenoxy)cyclobutyl)-1,2,4-oxadiazol-5-yl)methyl)-7-methyl-1,7-dihydro-6H-purin-6-one] | 0.038 |  | 
13 | Cc1cncc2ncn(Cc3nc([C@H]4[C@@H]5CN(c6ccccc6)C[C@@H]54)no3)c(=O)c12 | 0.0146 |  | 
14 | Cn1cnc2ncn(Cc3nc([C@@H]4[C@H]5C=C(c6ccc(-c7cnco7)cc6)C[C@H]54)no3)c(=O)c21 [Example Compound 277, 7-methyl-1-[[3-[(1R,5R,6S)-3-(4-oxazol-5-ylphenyl)-6-bicyclo[3.1.0]hex-2-enyl]-1,2,4-oxadiazol-5-yl]methyl]purin-6-one] |  |  | IC50 (compounds incubated 10 minutes at room temperature before cinnamaldehyde agonist): 0.0168 µM; IC50 (compounds incubated 90 minutes at room temperature before cinnamaldehyde agonist): 0.011 µM
15 | Cn1cnc2cnn(Cc3nc([C@H]4[C@@H]5CN(c6cc(Cl)ccn6)C[C@@H]54)no3)c(=O)c21 [Example Compound 148, 5-((3-((1R,5S,6r)-3-(4-chloropyridin-2-yl)-3-azabicyclo[3.1.0]hexan-6-yl)-1,2,4-oxadiazol-5-yl)methyl)-3-methyl-3,5-dihydro-4H-imidazo[4,5-d]pyridazin-4-one] | 0.305 | 0.15 | 
16 | Cn1cnc2ncn(Cc3nc([C@H]4C[C@H](Oc5ccc(Cl)cc5)C4)no3)c(=O)c21 [Example Compound 218, 1-((3-((1r,3r)-3-(4-chlorophenoxy)cyclobutyl)-1,2,4-oxadiazol-5-yl)methyl)-7-methyl-1,7-dihydro-6H-purin-6-one] | 0.0249 | 0.013 | 

Now from value to molecule, other results behind:

Row | IC50 [1] [µM] | IC50 [2] [µM] | Structure (SMILES) | further results
17 | 0.0182 | 0.0021 | Cn1cnc2ncn(Cc3nc([C@H]4[C@@H]5CN(c6ccc7sncc7c6)C[C@@H]54)no3)c(=O)c21 [Example Compound 237, 1-((3-((1R,5S,6r)-3-(benzo[d]isothiazol-5-yl)-3-azabicyclo[3.1.0]hexan-6-yl)-1,2,4-oxadiazol-5-yl)methyl)-7-methyl-1,7-dihydro-6H-purin-6-one] | 
18 | 0.34 |  | Cn1cnc2ncn(Cc3nc([C@H]4[C@@H]5CN(c6cccc(-c7ccccc7)c6)C[C@@H]54)no3)c(=O)c21 [Example Compound 234, 1-((3-((1R,5S,6r)-3-([1,1′-biphenyl]-3-yl)-3-azabicyclo[3.1.0]hexan-6-yl)-1,2,4-oxadiazol-5-yl)methyl)-7-methyl-1,7-dihydro-6H-purin-6-one] | 
19 | 0.0112 | 0.0056 | O=c1c2cccnc2cnn1Cc1nc([C@H]2[C@@H]3CN(c4ccc5ncsc5c4)C[C@@H]32)no1 [Example Compound 279, 6-[[3-[(1R,5S)-3-(1,3-benzothiazol-6-yl)-3-azabicyclo[3.1.0]hexan-6-yl]-1,2,4-oxadiazol-5-yl]methyl]pyrido[2,3-d]pyridazin-5-one] | 
20 | 0.312 | 0.04 | Cn1cnc2ncn(Cc3nc([C@@H]4[C@H]5C=C(c6ccccc6)[C@@H](O)[C@H]54)no3)c(=O)c21 [Example Compound 250, 7-methyl-1-[[3-[(1R,4S,5R,6R)-4-hydroxy-3-phenyl-6-bicyclo[3.1.0]hex-2-enyl]-1,2,4-oxadiazol-5-yl]methyl]purin-6-one] | 
21 | 0.0161 | 0.012 | Cn1c(=O)ccc2ncn(Cc3nc([C@@H]4[C@H]5C=C(c6ccccc6)C[C@H]54)no3)c(=O)c21 [Example Compound 265, 5-methyl-3-[[3-[(1R,5R,6S)-3-phenyl-6-bicyclo[3.1.0]hex-2-enyl]-1,2,4-oxadiazol-5-yl]methyl]pyrido[3,2-d]pyrimidine-3,6-dione] | 
22 | 0.0119 | 0.0065 | O=c1c2cccc(=O)n2ccn1Cc1nc([C@@H]2[C@H]3C=C(c4ccccc4)C[C@H]32)no1 [Example Compound 275, 2-[[3-[(1R,5R,6S)-3-phenyl-6-bicyclo[3.1.0]hex-2-enyl]-1,2,4-oxadiazol-5-yl]methyl]pyrido[1,2-a]pyrazine-1,6-dione] | 
23 | 0.02 | 0.012 | Cn1cnc2ncn(Cc3nc([C@H]4[C@@H]5C=C(c6ccc7[nH]ncc7c6)C[C@@H]54)no3)c(=O)c21 [Example Compound 268, 7-methyl-1-[[3-[(1S,5S,6R)-3-(1H-indazol-5-yl)-6-bicyclo[3.1.0]hex-2-enyl]-1,2,4-oxadiazol-5-yl]methyl]purin-6-one] | 
24 | 0.0573 |  | Cn1cnc2ncn(Cc3nc([C@H]4C[C@H](c5ccc6ccccc6c5)C4)no3)c(=O)c21 [Example Compound 231, 7-methyl-1-((3-((1r,3r)-3-(naphthalen-2-yl)cyclobutyl)-1,2,4-oxadiazol-5-yl)methyl)-1,7-dihydro-6H-purin-6-one] | 
25 | 0.0546 |  | Cn1cnc2ncn(Cc3nc([C@H]4C[C@H](c5ccc(F)c(Cl)c5)C4)no3)c(=O)c21 [Example Compound 220, 1-((3-((1r,3r)-3-(3-chloro-4-fluorophenyl)cyclobutyl)-1,2,4-oxadiazol-5-yl)methyl)-7-methyl-1,7-dihydro-6H-purin-6-one] | 
26 | 0.101 | 0.045 | Cn1c(NC2COC2)nc2ncn(Cc3nc([C@H]4[C@@H]5C=C(c6ccccc6)C[C@@H]54)no3)c(=O)c21 [Example Compound 243, 7-methyl-8-(oxetan-3-ylamino)-1-[[3-[(1S,5S,6R)-3-phenyl-6-bicyclo[3.1.0]hex-2-enyl]-1,2,4-oxadiazol-5-yl]methyl]purin-6-one] | 
27 | 0.0539 | 0.029 | CCNc1nc2ncn(Cc3nc([C@H]4[C@@H]5C=C(c6ccccc6)C[C@@H]54)no3)c(=O)c2n1C [Example Compound 246, 8-(ethylamino)-7-methyl-1-[[3-[(1S,5S,6R)-3-phenyl-6-bicyclo[3.1.0]hex-2-enyl]-1,2,4-oxadiazol-5-yl]methyl]purin-6-one] | 
